Measured values: the supplement of paper PMC10307832

Tests used:
Assay in all cases: relative viability (nuclei count vs DMSO), 5 days (fraction); higher = more cells survive
[1] = compound: C1/C(=C\C2=CC=CS2)/C(=O)/C(=C/C3=CC=CS3)/C1 + CC(=O)c1c(C)c2cnc(Nc3ccc(N4CCNCC4)cn3)nc2n(C2CCCC2)c1=O [Palbociclib] (partner 0.5 µM)
Summary of the method: (§1)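 Relative viability equals treated-well nuclei counts divided by vehicle-well nuclei counts. Counts came from 4× images of lung cancer cell lines grown in 1536-well plates for 5 days after pin-tool dosing on the day after seeding. Dosing used one drug alone or a fixed anchor-drug dose plus five library-drug doses (not always all listed) in √10 steps, and values are medians of duplicate plates.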

TPCA-1 + Linsitinib = compound: C1=CC(=CC=C1C2=CC(=C(S2)NC(=O)N)C(=O)N)F [TPCA-1] + C[C@]1(O)C[C@@H](c2nc(-c3ccc4ccc(-c5ccccc5)nc4c3)c3c(N)nccn32)C1 [Linsitinib] (partner 1 µM)
Summary of the method: as §1

[2] = compound: C1/C(=C\C2=CC=CS2)/C(=O)/C(=C/C3=CC=CS3)/C1 + CC(C)C[C@H](NC(=O)[C@H](Cc1ccccc1)NC(=O)c1cnccn1)B(O)O [Bortezomib] (partner 0.002 µM)
Summary of the method: as §1

Lestaurtinib + OSI-027 = compound: C[C@]12O[C@H](C[C@]1(O)CO)n1c3ccccc3c3c4c(c5c6ccccc6n2c5c31)CNC4=O [Lestaurtinib] + COc1cccc2cc(-c3nc([C@H]4CC[C@H](C(=O)O)CC4)n4ncnc(N)c34)[nH]c12 [OSI-027] (partner 0.5 µM)
Summary of the method: as §1

| Cell Line | relative viability ([1]; first compound 0.2 µM) | relative viability ([1]; first compound 0.6325 µM) | relative viability ([1]; first compound 2 µM) | relative viability ([1]; first compound 6.325 µM) | relative viability ([1]; first compound 20 µM) | relative viability (TPCA-1 + Linsitinib; first compound 0.04 µM) | relative viability (TPCA-1 + Linsitinib; first compound 0.1265 µM) | relative viability (TPCA-1 + Linsitinib; first compound 0.4 µM) | relative viability (TPCA-1 + Linsitinib; first compound 1.265 µM) | relative viability (TPCA-1 + Linsitinib; first compound 4 µM) | relative viability ([2]; first compound 0.2 µM) | relative viability ([2]; first compound 0.6325 µM) | relative viability ([2]; first compound 2 µM) | relative viability ([2]; first compound 6.325 µM) | relative viability ([2]; first compound 20 µM) | relative viability (Lestaurtinib + OSI-027; first compound 0.005 µM) | relative viability (Lestaurtinib + OSI-027; first compound 0.01581 µM) | relative viability (Lestaurtinib + OSI-027; first compound 0.05 µM) | relative viability (Lestaurtinib + OSI-027; first compound 0.1581 µM) | relative viability (Lestaurtinib + OSI-027; first compound 0.5 µM) |
| --- | --- | --- | --- | --- | --- | --- | --- | --- | --- | --- | --- | --- | --- | --- | --- | --- | --- | --- | --- | --- |
| LCLC-97TM1 | 0.255 | 0.228 | 0.203 | 0.21 | 0.196 | 0.206 | 0.188 | 0.166 | 0.15 | 0.159 | 0.777 | 0.501 | 0.737 | 0.43 | 0.565 | 0.547 | 0.42 | 0.125 | 0.215 | 0.182 |
| LCLC-103H | 0.49 | 0.456 | 0.469 | 0.426 | 0.469 | 1.24 | 0.99 | 1.08 | 1.12 | 1.07 | 1.1 | 0.998 | 1.08 | 1 | 1.07 | 0.442 | 0.49 | 0.349 | 0.385 | 0.286 |
| LOU-NH91 | 0.564 | 0.584 | 0.523 | 0.507 | 0.55 | 1.02 | 0.841 | 1 | 0.993 | 0.859 | 0.472 | 0.528 | 0.459 | 0.327 | 0.493 | 0.728 | 0.711 | 0.637 | 0.574 | 0.424 |
| LU99A | 0.402 | 0.395 | 0.481 | 0.368 | 0.38 | 0.486 | 0.45 | 0.513 | 0.341 | 0.306 | 1.21 | 1.13 | 1.26 | 0.668 | 0.941 | 0.288 | 0.263 | 0.262 | 0.249 | 0.203 |
| LXF-289 | 0.648 | 0.615 | 0.567 | 0.577 | 0.56 | 0.94 | 0.969 | 0.932 | 0.962 | 0.793 | 1.01 | 0.988 | 0.971 | 0.83 | 0.991 | 0.805 | 0.677 | 0.491 | 0.536 | 0.391 |
| NCI-H23 | 0.553 | 0.557 | 0.551 | 0.478 | 0.462 | 0.537 | 0.559 | 0.759 | 0.602 | 0.549 | 1.17 | 1.05 | 0.953 | 0.983 | 1.01 | 0.592 | 0.719 | 0.596 | 0.418 | 0.345 |
| NCI-H322M | 0.517 | 0.508 | 0.529 | 0.431 | 0.468 | 1.02 | 0.834 | 0.952 | 0.803 | 0.607 | 1.17 | 1.31 | 1.3 | 1.19 | 1.12 | 0.561 | 0.525 | 0.427 | 0.498 | 0.372 |
| NCI-H441 | 0.242 | 0.217 | 0.234 | 0.197 | 0.25 | 0.669 | 0.287 | 0.569 | 0.328 | 0.188 | 0.617 | 0.516 | 0.351 | 0.447 | 0.482 | 0.597 | 0.589 | 0.279 | 0.342 | 0.303 |
| NCI-H460 | 0.201 | 0.174 | 0.224 | 0.244 | 0.146 | 0.946 | 0.737 | 0.735 | 0.339 | 0.286 | 1.12 | 1.26 | 1.17 | – | 1.09 | 0.498 | 0.859 | 0.359 | 0.229 | 0.204 |
| NCI-H520 | 0.256 | 0.251 | 0.223 | – | 0.227 | 1.16 | 0.832 | 0.989 | 0.838 | 0.921 | 0.575 | 0.763 | 0.601 | 0.401 | 0.533 | 0.299 | 0.286 | 0.272 | 0.206 | 0.196 |
| NCI-H647 | 0.441 | 0.442 | 0.378 | 0.398 | 0.405 | 1.11 | 1.07 | 1.1 | 1.05 | 0.694 | 0.877 | 1.09 | 1.11 | 0.627 | 0.912 | 0.6 | 0.562 | 0.28 | 0.205 | 0.143 |
| NCI-H650 | 0.431 | 0.33 | 0.345 | 0.322 | 0.356 | 1.08 | 0.755 | 0.89 | 0.382 | 0.465 | 0.974 | 0.849 | 0.961 | 1.02 | 0.768 | 0.536 | 0.6 | 0.441 | 0.364 | 0.313 |
| NCI-H661 | 0.405 | 0.403 | 0.41 | 0.394 | 0.421 | 0.524 | 0.487 | 0.706 | 0.534 | 0.411 | 0.857 | 0.716 | 0.858 | 0.738 | 0.732 | 0.623 | 0.736 | 0.405 | 0.589 | 0.372 |
| NCI-H727 | 0.632 | 0.678 | 0.61 | – | 0.669 | 0.203 | 0.318 | 0.342 | 0.223 | 0.244 | 0.783 | 0.947 | 1.04 | 0.698 | 0.815 | 0.614 | 0.675 | 0.525 | 0.698 | 0.498 |
| NCI-H838 | 0.225 | 0.212 | 0.211 | 0.203 | 0.194 | 1.06 | 0.868 | 0.962 | 0.886 | 0.811 | 0.864 | 0.787 | 0.912 | 0.655 | 0.782 | 0.399 | 0.441 | 0.397 | 0.446 | 0.228 |
| NCI-H1355 | 0.381 | 0.379 | 0.408 | 0.34 | 0.382 | 0.99 | 0.709 | 0.737 | 0.711 | 0.667 | 1.21 | 1.2 | 1.21 | 1.1 | 1.14 | 0.387 | 0.438 | 0.362 | 0.309 | 0.286 |
